# Assay results published in patent US11845809B2, “Maleate of SCY-635 and uses thereof in medicine” (priority 2018, dated 2023).
# Like-named read-outs stand apart in the source and are kept apart here.
# Experiments:
# [1] = format: physicochemical; conditions: for Final pH of supernatant: FaSSIF, RT
# Source text: (§1) Crystalline maleate was recommended as a leading salt and further evaluated by kinetic solubility and physicochemical stability.
# physchem = format: physicochemical; conditions: fassif, thermodynamic from solid, Solubility (S)
# [2] = format: physicochemical; conditions: for Final pH of supernatant: water, RT
# Source text: as §1
# P-glycoprotein = P-glycoprotein (Homo sapiens, UniProt P08183); conditions: cited from earlier work
# Chain of P-glycoprotein (P08183 whole entry): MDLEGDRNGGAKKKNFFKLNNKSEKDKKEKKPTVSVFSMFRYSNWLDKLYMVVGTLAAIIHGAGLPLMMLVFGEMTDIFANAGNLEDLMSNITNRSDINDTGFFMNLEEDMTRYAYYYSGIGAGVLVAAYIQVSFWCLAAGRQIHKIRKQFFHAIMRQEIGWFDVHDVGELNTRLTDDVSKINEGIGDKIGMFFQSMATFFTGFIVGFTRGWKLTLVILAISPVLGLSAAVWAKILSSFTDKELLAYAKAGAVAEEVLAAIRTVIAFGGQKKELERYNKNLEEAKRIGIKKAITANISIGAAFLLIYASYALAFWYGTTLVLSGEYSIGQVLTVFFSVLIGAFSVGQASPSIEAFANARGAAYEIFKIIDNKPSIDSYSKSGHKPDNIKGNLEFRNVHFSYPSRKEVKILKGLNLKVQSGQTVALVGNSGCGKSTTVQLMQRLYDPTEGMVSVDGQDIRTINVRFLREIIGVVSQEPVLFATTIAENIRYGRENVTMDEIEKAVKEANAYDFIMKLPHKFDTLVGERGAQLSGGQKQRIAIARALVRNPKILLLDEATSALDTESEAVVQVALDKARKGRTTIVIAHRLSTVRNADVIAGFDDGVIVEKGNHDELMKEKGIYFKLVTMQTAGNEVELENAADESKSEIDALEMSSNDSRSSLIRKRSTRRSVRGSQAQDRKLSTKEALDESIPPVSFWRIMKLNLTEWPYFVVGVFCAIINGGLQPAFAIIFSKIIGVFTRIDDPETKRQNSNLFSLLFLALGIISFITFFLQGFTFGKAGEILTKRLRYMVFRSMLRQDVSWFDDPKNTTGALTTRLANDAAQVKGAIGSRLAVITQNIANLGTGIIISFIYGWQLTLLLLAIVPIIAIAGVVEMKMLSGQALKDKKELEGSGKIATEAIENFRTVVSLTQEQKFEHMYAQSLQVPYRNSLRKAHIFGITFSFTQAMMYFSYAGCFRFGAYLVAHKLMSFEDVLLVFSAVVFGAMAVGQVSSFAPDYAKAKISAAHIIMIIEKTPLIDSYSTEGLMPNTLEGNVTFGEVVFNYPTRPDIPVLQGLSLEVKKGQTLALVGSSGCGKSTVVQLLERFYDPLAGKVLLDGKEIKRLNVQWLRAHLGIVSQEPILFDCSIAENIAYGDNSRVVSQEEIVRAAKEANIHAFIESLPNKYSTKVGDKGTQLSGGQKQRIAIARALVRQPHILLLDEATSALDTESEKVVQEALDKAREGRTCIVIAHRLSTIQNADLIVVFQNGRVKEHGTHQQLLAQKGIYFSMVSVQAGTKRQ
# hepatitis C virus (HCV) [3] = conditions: cited from earlier work
# calcineurin = conditions: at concentrations up to 2 μM; cited from earlier work
# hepatitis C virus (HCV) [4] = conditions: cited from earlier work; remark: listed apart in the source
# cyclophilin A = cyclophilin A (Homo sapiens, UniProt P62937); conditions: cited from earlier work
# Chain of cyclophilin A (P62937 whole entry, species assumed): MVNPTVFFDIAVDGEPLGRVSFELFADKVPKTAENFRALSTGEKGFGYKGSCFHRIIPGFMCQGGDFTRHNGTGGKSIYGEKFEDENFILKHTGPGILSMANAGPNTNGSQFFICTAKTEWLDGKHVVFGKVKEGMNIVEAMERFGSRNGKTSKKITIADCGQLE
# stimulated Jurkat cells = conditions: cited from earlier work
# cytochrome P450 1A2 = conditions: cited from earlier work
# [5] = in vivo, cited from earlier work
# [6] = system: stimulated human peripheral blood mononuclear cells; conditions: cited from earlier work
# cytochrome P450 3A4 = conditions: cited from earlier work
# cytochrome P450 2B6 = conditions: cited from earlier work
# [7] = One-week physicochemical stability evaluation (HPLC purity); conditions: for Purity (area%) / Purity of initial (%): open, one week
# Method: Physicochemical stability of crystalline maleate was evaluated under 25° C./60% RH-open and 40° C./75% RH-open for one week.
compound,measurement,setting,value
C/C=C/C[C@@H](C)[C@@H](O)[C@H]1C(=O)N[C@@H](CC)C(=O)N(C)[C@H](SCCN(C)C)C(=O)N(C)[C@@H](CC(C)(C)O)C(=O)N[C@@H](C(C)C)C(=O)N(C)[C@@H](CC(C)C)C(=O)N[C@@H](C)C(=O)N[C@H](C)C(=O)N(C)[C@@H](CC(C)C)C(=O)N(C)[C@@H](CC(C)C)C(=O)N(C)[C@@H](C(C)C)C(=O)N1C [Freebase Type A],Final pH of supernatant,[1]; 2 hrs,6.8
same,Final pH of supernatant,[1]; 4 hrs,6.8
same,Final pH of supernatant,[1]; 6 hrs,7.0
same,solubility at 2 h,physchem,3700 µg/mL
same,solubility at 4 h,physchem,4700 µg/mL
same,solubility at 6 h,physchem,5600 µg/mL
same,Solubility (S),[2]; 2 h,100 µg/mL
same,Solubility (S),[2]; 4 h,100 µg/mL
same,Solubility (S),[2]; 6 h,300 µg/mL
same,Final pH of supernatant,[2]; 2 hrs,6.7
same,Final pH of supernatant,[2]; 4 hrs,6.5
same,Final pH of supernatant,[2]; 6 hrs,6.6
C/C=C/C[C@@H](C)[C@@H](O)[C@H]1C(=O)N[C@@H](CC)C(=O)N(C)[C@H](SCCN(C)C)C(=O)N(C)[C@@H](CC(C)(C)O)C(=O)N[C@@H](C(C)C)C(=O)N(C)[C@@H](CC(C)C)C(=O)N[C@@H](C)C(=O)N[C@H](C)C(=O)N(C)[C@@H](CC(C)C)C(=O)N(C)[C@@H](CC(C)C)C(=O)N(C)[C@@H](C(C)C)C(=O)N1C [Freebase amorphous],Final pH of supernatant,[1]; 2 hrs,6.9
same,Final pH of supernatant,[1]; 4 hrs,6.9
same,Final pH of supernatant,[1]; 6 hrs,7.0
same,Final pH of supernatant,[2]; 2 hrs,4.9
same,Final pH of supernatant,[2]; 4 hrs,4.7
same,Final pH of supernatant,[2]; 6 hrs,6.2
"C/C=C/C[C@@H](C)[C@@H](O)[C@H]1C(=O)N[C@@H](CC)C(=O)N(C)[C@H](SCCN(C)C)C(=O)N(C)[C@@H](CC(C)(C)O)C(=O)N[C@@H](C(C)C)C(=O)N(C)[C@@H](CC(C)C)C(=O)N[C@@H](C)C(=O)N[C@H](C)C(=O)N(C)[C@@H](CC(C)C)C(=O)N(C)[C@@H](CC(C)C)C(=O)N(C)[C@@H](C(C)C)C(=O)N1C [SCY-635, (3S,6S,9S,12R,15S,18S,21S,24S,27R,30S,33S)-27-((2-(dimethylamino)ethyl)thio)-30-ethyl-33-((1R,2R,E)-1-hydroxy-2-methylhex-4-en-1-yl)-24-(2-hydroxy-2-methylpropyl)-6,9,18-triisobutyl-3,21-diisopropyl-1,4,7,10,12,15,19,25,28-nonamethyl-1,4,7,10,13,16,19,22,25,28,31-undecaazacyclotritriacontan-2,5,8,11,14,17,20,23,26,29,32-undecaone]",P-glycoprotein inhibition,P-glycoprotein,weak inhibitor
same,P-glycoprotein substrate,P-glycoprotein,poor substrate
same,Suppression of HCV replication in vitro,hepatitis C virus (HCV) [3],potent suppression
same,Inhibition of calcineurin phosphatase activity,calcineurin,no detectable inhibition
same,Antiviral activity in combination,hepatitis C virus (HCV) [4]; with alpha interferon 2b,synergistic antiviral activity
same,Antiviral activity in combination,hepatitis C virus (HCV) [4]; with ribavirin,additive antiviral activity
same,Inhibition of peptidyl prolyl isomerase activity of cyclophilin A,cyclophilin A,at nanomolar concentrations
same,Inhibition of interleukin-2 secretion compared with cyclosporine,stimulated Jurkat cells,weaker inhibitor
same,Induction of cytochrome P450 1A2,cytochrome P450 1A2,did not induce
same,Blood and liver concentrations of parent drug versus replicon 50% effective dose,[5]; po,exceeded the 50% effective dose
same,Oral bioavailability,[5],orally bioavailable
same,Inhibition of interleukin-2 secretion compared with cyclosporine,[6],weaker inhibitor
same,Induction of cytochrome P450 3A4,cytochrome P450 3A4,did not induce
same,Induction of cytochrome P450 2B6,cytochrome P450 2B6,did not induce
Maleate,Purity (area%),[7]; 25° C./60% RH,100.0 area%
same,Purity of initial (%),[7]; 25° C./60% RH,100.0%
same,Purity (area%),[7]; 40° C./75% RH,100.0 area%
same,Purity of initial (%),[7]; 40° C./75% RH,100.0%
same,Chemical stability,"[7]; both 25° C./60% RH and 40° C./75% RH, at least one week",good chemical stability
same,Solubility compared with amorphous and crystalline freebase,[1],significant solubility improvement
same,Final pH of supernatant,[1]; 6 hrs,6.0
same,Solubility compared with amorphous and crystalline freebase,[2],significant solubility improvement
same,Final pH of supernatant,[2]; 6 hrs,4.9
